Columns and labels:
[1] = system: subjects with MDD at imminent risk for suicide; settings: human, in vivo, other: intranasal, 84 mg
Description: Transient blood pressure increases peaked for the esketamine group at approximately 40 minutes post dose with the maximum mean increases (across all dosing days) in systolic BP being 8.7 in the placebo group and 16.7 in the esketamine 84 mg group. The maximum mean increases (across all dosing days) in diastolic BP were 7.6 in the placebo group and 11.9 in the esketamine 84 mg group. […] See, FIGS. 46 and 47.

[2] = Pharmacokinetics of intranasal esketamine 28, 56, 84 mg in healthy subjects (Example 9); settings: for AUC(0-inf) / AUC(0-t) / Cmax / half-life / Tmax: both, human, plasma; for Tmax: healthy subjects
Description: This was an open-label, single-center study. The subjects were healthy Caucasian men and women, 20 to 55 years of age, inclusive. […] The solution consisted of:
Pharmacokinetic blood samples for measurement of esketamine and noresketamine concentrations in plasma were collected from predose until up to 24 hours after each intranasal esketamine regimen on Day 1 of each period.
Blood samples (4 mL each) for determination of esketamine and noresketamine plasma concentrations were collected into the appropriate collection tube (e.g., Vacutainer®) at timepoints 0.00, 0.12, 0.20, 0.37, 0.53, 0.67, 0.83, 1.00, 1.25, 1.50, 2.00, 3.00, 4.00, 6.00, 9.00, 12.00, 18.00, and 24.00 h. The total amount of blood to be drawn for clinical laboratory tests and PK evaluations is approximately 327 mL.
Plasma samples were analyzed for esketamine and noresketamine concentrations using the validated, specific and sensitive liquid chromatography coupled to tandem mass spectrometry (LC-MS/MS) achiral method of Example 8.
Serial PK blood samples (4 mL each) were collected for a 24-hour period from each subject (Periods 1, 2, and 3).
The following key parameters of esketamine and noresketamine in plasma were calculated using noncompartmental methods and actual sampling times: Cmax, tmax, AUClast, AUC∞, t1/2,λ, and λz.

[3] = Pharmacokinetics of esketamine nasal spray, data assembled from 14 Phase 1 studies (Example 10); settings: human, plasma, inhaled or intranasal
Description: The data herein was assembled from 14 Phase 1 studies; each Phase 1 study was performed similarly to the study outlined in Example 9 in which the PK of esketamine was assessed.

[4] = system: patients with treatment-resistant depression (TRD); test: BPRS positive symptom subscale, phase 2 dose-response study in TRD; type: in vivo, human
Description: Adverse events were monitored throughout the study. Other safety assessments (i.e., laboratory tests, vital signs, physical examination) were performed at pre-specified time points. Vital signs, the Clinician Administered Dissociative States Scale (CADSS; Bremner, “Measurement of dissociative states with the clinician-administered dissociative states scale (CADSS)”, J. Traumatic Stress, 1998, 11(1):125-136), and the 4-item positive symptom subscale from the Brief Psychiatric Rating Scale (BPRS; Overall, “The Brief Psychiatric Rating Scale. Psychological Reports”, 1962, 10:799-812) were assessed pre-dose, at 40 minutes, and 2 hours post-dose.

patients = test: Adverse reactions across clinical studies as described in product labeling; type: in vivo, human
Source text: In the product labeling, patients will be informed that dissociative/perceptual changes (including distortion of time and space and illusions), derealization and depersonalization are common psychological effects of esketamine. Patients will be further advised that • These adverse reactions were reported as transient and self-limited and occurred on the day of dosing. • Dissociation was reported as severe in intensity at the incidence of less than 4% across studies, • Dissociation symptoms typically resolved by 1.5 hours after dosing and the severity tended to reduce over time with repeated treatments. • Dissociative and perception disturbances may decrease after a few treatment sessions.
The product label will include a brief description of the adverse reactions of sedation and somnolence reported in clinical studies with esketamine: • Events of sedation and somnolence were primarily mild or moderate in severity, occurred on the day of dosing and resolved spontaneously the same day. • The sedative effects typically resolved by 1.5 hours after dosing. • Rates of somnolence were relatively stable over time during long-term treatment. • In the cases of sedation, no symptoms of respiratory distress were observed, and hemodynamic parameters (including vital signs and oxygen saturation) remained within normal ranges.

[5] = system: elderly subjects with TRD; settings: human, in vivo, other: intranasal
Source text: The Modified Observer's Assessment of Alertness/Sedation (MOAA/S) was used to measure treatment-emergent sedation with correlation to levels of sedation defined by the American Society of Anesthesiologists (ASA) continuum. The MOAA/S scores range from 0 (No response to painful stimulus; corresponds to ASA continuum for general anesthesia) to 5 (Readily responds to name spoken in normal tone [awake]; corresponds to ASA continuum for minimal sedation). The proportion of subjects with sedation was <4% for the esketamine group for each dosing day.

## CN[C@]1(c2ccccc2Cl)CCCCC1=O [esketamine, (S)-2-(2-chlorophenyl)-2-(methylamino)cyclohexanone]
[1]
  Blood pressure returning to normal range by (post dose): ≤ 2 h
[1]; 40 minutes
  Maximum mean increase in diastolic BP (across all dosing days): 11.9
  Maximum mean increase in systolic BP (across all dosing days): 16.7
[2]; inhaled or intranasal, 28 mg
  AUC(0-inf): 136 ng·h/mL
  AUC(0-t): 128 ng·h/mL
  Cmax: 49.7 ng/mL
  half-life: 435 min
[2]; inhaled or intranasal, 28 mg, tmax, esketamine in plasma, single intranasal 28 mg (Treatment A), median
  Tmax: 40.2 min
[2]; inhaled or intranasal, 56 mg
  AUC(0-inf): 222 ng·h/mL
  AUC(0-t): 216 ng·h/mL
  Cmax: 74.1 ng/mL
  half-life: 435 min
[2]; inhaled or intranasal, 56 mg, tmax, esketamine in plasma, single intranasal 56 mg (Treatment B), median
  Tmax: 40.2 min
[2]; inhaled or intranasal, 84 mg
  AUC(0-inf): 329 ng·h/mL
  AUC(0-t): 310 ng·h/mL
  Cmax: 103 ng/mL
  half-life: 427 min
[2]; inhaled or intranasal, 84 mg, Median tmax of esketamine, range across regimens, intranasal 28, 56, 84 mg
  Tmax: 40.2 to 49.8 min
[2]; inhaled or intranasal, 84 mg, tmax, esketamine in plasma, single intranasal 84 mg (Treatment C), median
  Tmax: 49.8 min
[2]; other: intranasal, 84 mg
  half-life: 427 to 435 min
[2]; esketamine in plasma
  AUC (AUClast and AUC∞) variability: 25.0% to 30.4
  Cmax variability (percent coefficient of variation) across the 3 treatment groups: 35.7% to 36.7
[3]; 28 mg
  AUC(0-t): 128 to 183 ng·h/mL
  Cmax: 49.7 to 70.5 ng/mL
[3]; 28 mg, Terminal t1/2, young adult subjects, single dose nasal spray 28 mg, range across studies
  half-life: 435 to 990 min
[3]; 28 mg, Tmax, young adult subjects, single dose nasal spray 28 mg, range of median values
  Tmax: 19.8 to 40.2 min
[3]; 28 mg, tmax typically observed after the first nasal spray, 28 mg
  Tmax: 20 to 40 min
[3]; 56 mg
  AUC(0-t): 216 to 317 ng·h/mL
  Cmax: 71.8 to 117 ng/mL
[3]; 56 mg, Terminal t1/2, young adult subjects, single dose nasal spray 56 mg, range across studies
  half-life: 408 to 590 min
[3]; 56 mg, Tmax, young adult subjects, single dose nasal spray 56 mg, range of median values
  Tmax: 30 to 46.2 min
[3]; 56 mg, tmax typically observed after the first nasal spray, 56 mg
  Tmax: 30 to 45 min
[3]; 84 mg
  AUC(0-t): 310 to 489 ng·h/mL
  Cmax: 95 to 164 ng/mL
[3]; 84 mg, Terminal t1/2, young adult subjects, single dose nasal spray 84 mg, range across studies
  half-life: 396 to 720 min
[3]; 84 mg, Tmax, young adult subjects, single dose nasal spray 84 mg, range of median values
  Tmax: 31.8 to 49.8 min
[3]; 84 mg, tmax typically observed after the first nasal spray, 84 mg
  Tmax: 30 to 50 min
[3]; Mean terminal t1/2, range, nasal administration
  half-life: 420 to 720 min
[3]; Median terminal t1/2, nasal administration
  half-life: 642 min
[4]
  Symptoms suggestive of psychosis (BPRS-positive assessment): No participant manifested symptoms suggestive of psychosis
patients; across studies
  Dissociation symptoms typically resolved by (after dosing): ≤ 1.5 h
  Incidence of dissociation reported as severe in intensity: less than 4%
patients; clinical studies
  Sedative effects typically resolved by (after dosing): ≤ 1.5 h
[5]
  Proportion of subjects with sedation (post dose MOAA/S score ≤3): < 4%

— patent US20230121313A1 (priority 2019, published 2023)
